Results as given in patent publication US20140187538A1, “LORCASERIN HYDROCHLORIDE” (DR. REDDY'S LABORATORIES LTD., priority 2012, published 2014).

Experiment: physical stability of the amorphous solid form (tendency to crystallize over time)
Assay type: physicochemical
Conditions: solid state; amorphous drug substance alone vs amorphous solid dispersion; crystallization over a period of time

## C[C@H]1CNCCc2ccc(Cl)cc21.Cl [amorphous lorcaserin hydrochloride]
  physical stability: limited physical stability
